Numbered stars: 1 amine (or outer) side, 2 acyl side, 3 side chain; on linkers, the order of the positions; unused ones are H or OH. Bridge positions count the residues as written; N and C are the ends. Square brackets hold non-standard residues; d marks the D form. Peptide text beside a SMILES is read from it. ξ: configuration not given here. Nle(4-yne,6-yl) = O=C([C@H](CC#CC[*:3])N[*:1])[*:2]; ξIle = CC[C@H](C)C(N)C(=O)O
What follows are compounds tested against GTPase KRas (Homo sapiens, UniProt P01116, G12V) (assay: Inhibition of alexa fluor 647-labeled kinase tracer 314 binding to biotinylated-KRAS G12V mutant (unknown origin) measured after 60 mins by HTRF competition binding assay). Settings: not given.

Compound | pIC50
CC(C)C[C@H](NC(=O)[C@H]1COCc2cn(nn2)CCCCC(=O)NCC(=O)N2CCC[C@H]2C(=O)N[C@@H](Cc2cccc3ccccc23)C(=O)N1)C(N)=O | < 4

Same assay, conditions: read-out: IC50

Compound | IC50
CC(C)C[C@H](NC(=O)[C@@H]1COCc2cnnn2CCCCC(=O)NCC(=O)N2CCC[C@H]2C(=O)N[C@@H](Cc2cccnc2)C(=O)N1)C(N)=O | 41 µM
CC(C)C[C@H](NC(=O)[C@@H]1COCc2cnnn2CCCCC(=O)NCC(=O)N2CCC[C@H]2C(=O)N[C@@H](Cc2ccccc2Cl)C(=O)N1)C(N)=O | > 100 µM
CC(C)C[C@H](NC(=O)[C@@H]1COCc2cnnn2CCCCC(=O)N[C@H](CC(=O)O)C(=O)N2CCC[C@H]2C(=O)N[C@@H](Cc2cccc3ccccc23)C(=O)N1)C(N)=O | 77 µM
CC(=O)N[C@@H](CC(=O)O)C(=O)N[C@H]1CCCn2nncc2COC[C@@H](C(=O)N[C@@H](CC(C)C)C(=O)N[C@@H](C)C(=O)N2CCC[C@H]2C(N)=O)NC(=O)[C@H](Cc2cccc3ccccc23)NC(=O)[C@@H]2CCCN2C(=O)CNC1=O | 40 µM
CC(=O)N[C@@H](Cc1cccc2ccccc12)C(=O)N[C@@H](COCc1cnnn1CCCCC(=O)NCC(N)=O)C(=O)N[C@@H](CC(C)C)C(N)=O | 38 µM
NC(=O)CC[C@H](NC(=O)[C@@H]1COCc2cnnn2CCCCC(=O)NCC(=O)N2CCC[C@H]2C(=O)N[C@@H](Cc2cccc3ccccc23)C(=O)N1)C(N)=O | 50 µM
CC(C)C[C@H](NC(=O)[C@@H]1COCc2cnnn2CCCCC(=O)NCC(=O)N2CCC[C@H]2C(=O)N[C@@H](Cc2ccccc2)C(=O)N1)C(N)=O | > 38 µM
CC(C)C[C@H](NC(=O)[C@@H]1COCc2cnnn2CCCCC(=O)NCC(=O)NC(C)(C)C(=O)N[C@@H](Cc2cccc3ccccc23)C(=O)N1)C(N)=O | 20 µM
CC(C)C[C@H](NC(=O)[C@H]1COCc2cnnn2CCCCC(=O)NCC(=O)N2CCC[C@H]2C(=O)N[C@@H](Cc2cccc3ccccc23)C(=O)N1)C(=O)N[C@@H](C)C(=O)N1CCC[C@H]1C(N)=O | 46 µM
CC(C)C[C@H](NC(=O)[C@@H]1COCc2cnnn2CCCCC(=O)NCC(=O)N2CCCCC[C@H]2C(=O)N[C@@H](Cc2cccc3ccccc23)C(=O)N1)C(N)=O | 55 µM
C[C@H](NC(=O)[C@@H]1COCc2cnnn2CCCCC(=O)NCC(=O)N2CCC[C@H]2C(=O)N[C@@H](Cc2cccc3ccccc23)C(=O)N1)C(N)=O | 37 µM
CC(C)C[C@H](NC(=O)[C@@H]1COCc2cnnn2CCCCCC(=O)N2CCC[C@H]2C(=O)N[C@@H](Cc2cccc3ccccc23)C(=O)N1)C(N)=O | 12 µM
CC(C)C[C@H](NC(=O)[C@@H]1COCc2cnnn2CCCCC(=O)NCC(=O)N2CCC[C@H]2C(=O)N[C@@H](Cc2cccs2)C(=O)N1)C(N)=O | 53 µM
CC(C)C[C@H](NC(=O)[C@@H]1COCc2cnnn2CCCCC(=O)NCC(=O)N2CCC[C@H]2C(=O)N[C@@H](c2ccccc2)C(=O)N1)C(N)=O | > 100 µM
CC(C)C[C@H](NC(=O)[C@H]1COCc2cn(nn2)CCCCC(=O)NCC(=O)N2CCC[C@H]2C(=O)N[C@@H](Cc2cccc3ccccc23)C(=O)N1)C(N)=O | > 100 µM
CC(C)C[C@H](NC(=O)[C@@H]1COCc2cnnn2CCCCC(=O)NCC(=O)N2C[C@H](O)C[C@H]2C(=O)N[C@@H](Cc2cccc3ccccc23)C(=O)N1)C(N)=O | 95 µM
CC(C)C[C@H](NC(=O)[C@H]1Cn2nncc2CCCC(=O)NCC(=O)N2CCC[C@H]2C(=O)N[C@@H](Cc2cccc3ccccc23)C(=O)N1)C(N)=O | 31 µM
CC(C)C[C@H](NC(=O)[C@@H]1COCc2cnnn2CCCCC(=O)NCC(=O)N2CCC[C@H]2C(=O)N[C@@H](CC2CCCCC2)C(=O)N1)C(N)=O | 100 µM
CC(C)C[C@H](NC(=O)[C@@H]1COCc2cnnn2CCCCC(=O)NCC(=O)N(C)[C@@H](C(C)C)C(=O)N[C@@H](Cc2cccc3ccccc23)C(=O)N1)C(N)=O | 100 µM
CC(C)C[C@H](NC(=O)[C@@H]1COCc2cnnn2CCCCCCCCCC(=O)N2CCC[C@H]2C(=O)N[C@@H](Cc2cccc3ccccc23)C(=O)N1)C(N)=O | 28 µM
CC(C)C[C@H](NC(=O)[C@@H]1COCc2cnnn2CCCCC(=O)N[C@@H](CC(=O)O)C(=O)N2CCC[C@H]2C(=O)N[C@@H](Cc2cccc3ccccc23)C(=O)N1)C(N)=O | 66 µM
CC(C)C[C@H](NC(=O)[C@@H]1COCc2cnnn2CCCCC(=O)N[C@@H](C)C(=O)N2CCC[C@H]2C(=O)N[C@@H](Cc2cccc3ccccc23)C(=O)N1)C(N)=O | 9.7 µM
CC(C)C[C@H](NC(=O)[C@H]1CCCc2cnnn2CCCCC(=O)NCC(=O)N2CCC[C@H]2C(=O)N[C@@H](Cc2cccc3ccccc23)C(=O)N1)C(N)=O | 19 µM
CC[C@@H](C)[C@@H]1NC(=O)[C@@H]2CCCN2C(=O)[C@H](Cc2ccc(O)cc2)NC(=O)[C@@H](NC(=O)[C@H](CC(=O)O)NC(C)=O)CCCn2nncc2COC[C@@H](C(=O)N[C@@H](CC(C)C)C(=O)N[C@@H](CC(C)C)C(=O)N2CCC[C@H]2C(N)=O)NC1=O | > 89 µM
CC(C)C[C@H](NC(=O)[C@@H]1COCc2cnnn2CCCCC(=O)NCC(=O)N2CCC[C@H]2C(=O)N[C@@H](Cc2ccc3ccccc3c2)C(=O)N1)C(N)=O | 9.5 µM
CC(=O)N[C@@H](CCC(=O)O)C(=O)N[C@H]1CCCn2nncc2COC[C@H](C(=O)N[C@@H](CC(C)C)C(N)=O)NC(=O)[C@H](Cc2cccc3ccccc23)NC(=O)[C@@H]2CCCN2C(=O)CNC1=O | 93 µM

Compound | IC50
CC(C)C[C@H](NC(=O)[C@H]1CCn2nncc2CCCC(=O)NCC(=O)N2CCC[C@H]2C(=O)N[C@@H](Cc2cccc3ccccc23)C(=O)N1)C(N)=O | 13 µM
CC(C)C[C@H](NC(=O)[C@@H]1COCc2cnnn2CCCCC(=O)NCC(=O)N2CCC[C@H]2C(=O)N[C@@H](CC2CC2)C(=O)N1)C(N)=O | 32 µM
CC(C)C[C@H](NC(=O)[C@H]1Cc2cnnn2CCCCC(=O)NCC(=O)N2CCC[C@H]2C(=O)N[C@@H](Cc2cccc3ccccc23)C(=O)N1)C(N)=O | 65 µM
NC(=O)[C@@H](NC(=O)[C@@H]1COCc2cnnn2CCCCC(=O)NCC(=O)N2CCC[C@H]2C(=O)N[C@@H](Cc2cccc3ccccc23)C(=O)N1)C1CCCCC1 | 78 µM
CC(C)C[C@@H](C(N)=O)N(C)C(=O)[C@@H]1COCc2cnnn2CCCCC(=O)NCC(=O)N2CCC[C@H]2C(=O)N[C@@H](Cc2cccc3ccccc23)C(=O)N1 | 26 µM
CC(C)C[C@H](NC(=O)[C@@H]1COCc2cnnn2CCCCC(=O)NCC(=O)N2CC[C@@H](O)[C@H]2C(=O)N[C@@H](Cc2cccc3ccccc23)C(=O)N1)C(N)=O | 70 µM
CC(C)C[C@H](NC(=O)[C@@H]1COCc2cnnn2CCCCC(=O)N[C@H](C)C(=O)N2CCC[C@H]2C(=O)N[C@@H](Cc2cccc3ccccc23)C(=O)N1)C(N)=O | 25 µM
CC(=O)N[C@@H](CC(=O)O)C(=O)N[C@H]1CCCn2nncc2COC[C@H](C(=O)N[C@@H](CC(C)C)C(N)=O)NC(=O)[C@H](Cc2cccc3ccccc23)NC(=O)[C@@H]2CCCN2C(=O)CNC1=O | 38 µM
CC(C)C[C@H](NC(=O)[C@@H]1COCc2cnnn2CCCCC(=O)NCC(=O)N2CCC[C@H]2C(=O)N[C@@H](CC(C)C)C(=O)N1)C(N)=O | 60 µM
CC(C)C[C@H](NC(=O)[C@@H]1COCc2cnnn2CCCCC(=O)NCC(=O)N2CCC[C@H]2C(=O)N[C@H](Cc2ccccc2)C(=O)N1)C(N)=O | > 82 µM
CCCC[C@H](NC(=O)[C@@H]1COCc2cnnn2CCCCC(=O)NCC(=O)N2CCC[C@H]2C(=O)N[C@@H](Cc2cccc3ccccc23)C(=O)N1)C(N)=O | 100 µM
CC(C)C[C@H](NC(=O)[C@@H]1COCc2cnnn2CCCCC(=O)NCC(=O)N2Cc3ccccc3C[C@H]2C(=O)N[C@@H](Cc2cccc3ccccc23)C(=O)N1)C(N)=O | 5.8 µM
CCCC[C@@H]1NC(=O)[C@@H]2CCCN2C(=O)CNC(=O)CCCCn2nncc2COC[C@@H](C(=O)N[C@@H](CC(C)C)C(N)=O)NC1=O | 48 µM
CC(=O)N[C@@H](CCC(=O)O)C(=O)N[C@H]1CCCn2nncc2COC[C@@H](C(=O)N[C@@H](CC(C)C)C(=O)N[C@@H](C)C(=O)N2CCC[C@H]2C(N)=O)NC(=O)[C@H](Cc2cccc3ccccc23)NC(=O)[C@@H]2CCCN2C(=O)CNC1=O | > 83 µM
CC(C)C[C@H](NC(=O)[C@@H]1COCc2cnnn2CCCCC(=O)N[C@@H](CCC(=O)O)C(=O)N2CCC[C@H]2C(=O)N[C@@H](Cc2cccc3ccccc23)C(=O)N1)C(N)=O | 49 µM
CC(C)C[C@H](NC(=O)[C@@H]1COCc2cnnn2CCCCC(=O)N[C@H](CCC(=O)O)C(=O)N2CCC[C@H]2C(=O)N[C@@H](Cc2cccc3ccccc23)C(=O)N1)C(N)=O | 100 µM
CC(C)C[C@H](CC(=O)[C@@H]1COCc2cnnn2CCCCC(=O)NCC(=O)N2CCC[C@H]2C(=O)C[C@@H](C)C(=O)C1)C(N)=O | 91 µM
CC[C@H](C)C1NC(=O)[C@@H]2CCCN2C(=O)[C@H](Cc2ccc(O)cc2)NC(=O)[C@@H](NC(=O)[C@H](CC(=O)O)NC(=O)[C@H](Cc2ccc(O)cc2)NC(=O)[C@H](Cc2ccccc2)NC(=O)[C@H](Cc2c[nH]cn2)NC(=O)[C@@H](N)Cc2ccccc2)CC#CCSC[C@@H](C(=O)N[C@@H](CC(C)C)C(=O)N[C@H](C(=O)N2CCC[C@H]2C(=O)N2CCC[C@H]2C(N)=O)[C@@H](C)CC)NC1=O (some centres undefined) (H-FHFYD[Nle(4-yne,6-yl)]YP[ξIle]CLIPP-NH2; thioether 6-10) | 0.023 µM
CC(C)C[C@H](NC(=O)[C@@H]1COCc2cnnn2CCCCCCCC(=O)N2CCC[C@H]2C(=O)N[C@@H](Cc2cccc3ccccc23)C(=O)N1)C(N)=O | 81 µM
NC(=O)C[C@H](NC(=O)[C@@H]1COCc2cnnn2CCCCC(=O)NCC(=O)N2CCC[C@H]2C(=O)N[C@@H](Cc2cccc3ccccc23)C(=O)N1)C(N)=O | 48 µM
NC(=O)[C@H](CC1CCCCC1)NC(=O)[C@@H]1COCc2cnnn2CCCCC(=O)NCC(=O)N2CCC[C@H]2C(=O)N[C@@H](Cc2cccc3ccccc23)C(=O)N1 | 100 µM
CC(C)C[C@H](NC(=O)[C@@H]1COCc2cnnn2CCCCC(=O)NCC(=O)N2CC[C@H]2C(=O)N[C@@H](Cc2cccc3ccccc23)C(=O)N1)C(N)=O | 32 µM
CC(C)C[C@H](NC(=O)[C@@H]1COCc2cnnn2CCCCC(=O)NCC(=O)N2CCC[C@H]2C(=O)N[C@@H](Cc2c[nH]c3ccccc23)C(=O)N1)C(N)=O | 18 µM
NC(=O)[C@H](CC1CC1)NC(=O)[C@@H]1COCc2cnnn2CCCCC(=O)NCC(=O)N2CCC[C@H]2C(=O)N[C@@H](Cc2cccc3ccccc23)C(=O)N1 | 29 µM
CC(C)C[C@H](NC(=O)[C@@H]1COCc2cnnn2CCCCC(=O)N2CCC[C@H]2C(=O)N[C@@H](Cc2cccc3ccccc23)C(=O)N1)C(N)=O | 48 µM

Same assay, conditions: read-out: pIC50 (converted)

Compound | IC50
CC[C@@H](C)[C@@H]1NC(=O)[C@@H]2CCCN2C(=O)[C@H](Cc2ccc(O)cc2)NC(=O)[C@@H](NC(=O)[C@H](CC(=O)O)NC(C)=O)CCCn2nncc2COC[C@@H](C(=O)N[C@@H](CC(C)C)C(=O)N[C@@H](CC(C)C)C(=O)N2CCC[C@H]2C(N)=O)NC1=O | > 79.4 µM
CC(=O)N[C@@H](CCC(=O)O)C(=O)N[C@H]1CCCn2nncc2COC[C@@H](C(=O)N[C@@H](CC(C)C)C(=O)N[C@@H](C)C(=O)N2CCC[C@H]2C(N)=O)NC(=O)[C@H](Cc2cccc3ccccc23)NC(=O)[C@@H]2CCCN2C(=O)CNC1=O | > 79.4 µM

Source: ChEMBL document CHEMBL5055671, “Targeting a Novel KRAS Binding Site: Application of One-Component Stapling of Small (5-6-mer) Peptides” (J Med Chem, 2021)
